For series [1] the following is noted: RSST, different reaction temperatures, FIG. 1. The source says:
The decomposition of the intermediate was indicated by the pressure increase.
FIG. 1—Plot showing the rate of decomposition of diazonium mesylate at different temperatures. Increased pressure is indicative of the decomposition of the mesylate to form nitrogen gas.

The conditions of series [2]: DSC, FIG. 2. In general terms: DSC measures the heat that a sample takes up or gives off during a temperature scan.
Series [3] in a line: Solubility in water of N-(4-aminobenzoyl)-β-alanine salts. It counts as physicochemical. The source says: According to one aspect of the invention, a more soluble salt of N-(4-aminobenzoyl)-β-alanine is provided which overcomes the use of the previous forms which were virtually insoluble in water.
(for example as depicted in FIG. 1). This latter temperature was selected as it provided for optimal reaction.
The preferred concentration of the aqueous sulfonic acid solution was about 4% to about 14%, more preferably about 7% to about 12%, and most preferably about 9%. The fact that higher concentrations were preferred, despite the decreased solubility of the salt, was a consequence of the fact that operationally, the use of about 9% sulfonic acid concentrations permitted proportionally lower reaction volumes, without compromising safety, and was advantageous for commercial scale-up.
FIG. 3—A comparison of the relative solubility of mesylate in differing concentrations of aqueous methanesulfonic acid.

Structures are written as SMILES.

`CS(=O)(=O)[O-].N#[N+]c1ccc(C(=O)NCCC(=O)O)cc1` [diazonium mesylate, N-(4-diazoniumbenzoyl)-β-alanine sulfonate salt]: in series [1], the “temperature at which decomposition may start” value is 25 °C. The “decomposition energy of solid relative to solution” value in series [2] is reported as “almost ten-fold higher”.

Turning to `CS(=O)(=O)O.Nc1ccc(C(=O)NCCC(=O)O)cc1` [methanesulfonic acid salt, N-(4-ammoniumbenzoyl)-β-alanine sulfonate salt], the solubility in water entry in series [3] is given as “unexpectedly high water solubility”.

As to `Nc1ccc(C(=O)NCCC(=O)O)cc1` [chloride, N-(4-aminobenzoyl)-β-alanine], the solubility in water entry is on record as “poorly soluble” in series [3] and “poor solubility” in series [3] (listed as hydrochloride salt of 4-aminobenzoyl-β-alanine).

Consider `Nc1ccc(C(=O)NCCC(=O)O)cc1` [free-base, N-(4-aminobenzoyl)-β-alanine], for which the “solubility at higher concentrations of sulfonic acid” value in series [3] (differing concentrations of aqueous methanesulfonic acid, FIG. 3) is “decrease in the solubility”.

These data come from patent publication US7271253B1, “Safe process for the preparation of balsalazide” (Apotex Pharmachem Inc., priority 2006, dated 2007).
